Usually IC50 stands for the concentration that gives 50% inhibition. A higher IC50 goes with weaker potency in that assay. Usually Kd stands for the constant that tells how readily two partners part at equilibrium.

Results on five molecules are retold here after US20240066136A1, “MODIFIED PROTEINS AND PROTEIN DEGRADERS” (Cullgen (Shanghai), Inc., priority 2020, published 2024).

In one test the test system is HCT116. Description: Cell viability assay (CellTiter-Glo). The format is cell-based. The settings on record: Homo sapiens, HCT-116, 120 h; HCT116, 5 days. As for the experimental part:
(§1) A variety of cancer cell lines were treated with Palbociclib or selected heterobifunctional compounds for 5 days at indicated concentrations in FIG. 12.
(§2) Cell Culture. LNCaP (clone FGC), Calu-1, MDA-MB-468, MDA-MB-453, NCI-H358, HCC1937, BT-549, HCT116, A375, SK-MEL-28, SK-N-SH, MIA PaCa-2, HS 578T, HCC827, MIA PaCa-2, and other cells were cultured at 37° C. with 5% CO2 in DMEM or RPMI 1640 Medium supplemented with 10% fetal bovine serum. Cells were authenticated using the short tandem repeat (STR) assays. Mycoplasma test results were negative.
(§3) Cell viability assay. Cells were seeded at a density of 5000 cells per well in 96-well assay plates and treated with test compounds following a 11-point 3-fold serial dilution for 3-5 days. Three days later, cell viability was determined using the CellTiter-Glo Assay Kit according to the manufacturer's instructions. The dose-response curves were determined and IC50 values were calculated using the GraphPad Prism software following a nonlinear regression (least squares fit) method.
On the technique in general: In ATP-based viability assays light output follows the ATP content of the culture.

The next test has as its system Hs 578T. Description: Cell viability assay (CellTiter-Glo). The format is cell-based. The note with it: Homo sapiens, 120 h, 5 days. The method, then:
as §1, §2, §3

A further test deals with NCI-H358. Description: Cell viability assay (CellTiter-Glo). The settings on record: Homo sapiens, 120 h; NCI-H358, 5 days. The format is cell-based. The method, then:
as §1, §2, §3

For the next test, the system named is BT-549. Description: Cell viability assay (CellTiter-Glo). Type of test: cell-based. The settings on record: Homo sapiens, 120 h; BT-549, 5 days. As for the experimental part: as §1, §2, §3
For a further test, the system named is MDAMB-468. Description: Cell viability assay (CellTiter-Glo). The note with it: Homo sapiens, MDA-MB-468, 120 h; MDAMB-468, 5 days. Type of test: cell-based. As for the experimental part:
as §1, §2, §3

The next test concerns SK-MEL-28. The test can be described thus: Cell viability assay (CellTiter-Glo). The format is cell-based. The settings on record: Homo sapiens, 120 h; SK-MEL-28, 5 days. The method, then:
as §1, §2, §3

In the next test the test system is SK-N-SH. Description: Cell viability assay (CellTiter-Glo). The note with it: Homo sapiens, 120 h, 5 days. The format is cell-based. As for the experimental part:
as §1, §2, §3

For the next test, the system named is HCC1937. Description: Cell viability assay (CellTiter-Glo). The format is cell-based. The note with it: Homo sapiens, 120 h; HCC1937, 5 days. As for the experimental part: as §1, §2, §3
For a further test, the system named is A375. The test can be described thus: Cell viability assay (CellTiter-Glo). Type of test: cell-based. The settings on record: Homo sapiens, A-375, 120 h; A375, 5 days. As for the experimental part: as §1, §2, §3
The next test relates to HCC827. The test can be described thus: Cell viability assay (CellTiter-Glo). The format is cell-based. The settings on record: Homo sapiens, 120 h; HCC827, 5 days. As for the experimental part:
as §1, §2, §3

A further test has as its system MDAMB-453. The test can be described thus: Cell viability assay (CellTiter-Glo). The format is cell-based. The settings on record: Homo sapiens, MDA-MB-453, 120 h; MDAMB-453, 5 days. The method, then: (§4) Calu-1, MDA-MB-453 or MIA PaCa-2 cancer cells were treated with Palbociclib or selected heterobifunctional compounds for 5 days at indicated concentrations following a 2-fold serial dilution.
as §1, §2, §3

The test system of a further test is MIA PaCa-2. Description: Cell viability assay (CellTiter-Glo). The settings on record: Homo sapiens, 120 h; MIA PaCa-2, 5 days. The format is cell-based. As for the experimental part:
as §4, §1, §2, §3

The next test deals with Calu-1. Description: Cell viability assay (CellTiter-Glo). Type of test: cell-based. The settings on record: Homo sapiens, 120 h; Calu-1, 5 days. The method, then:
as §4, §1, §2, §3

The test system of test [1] is Calu-1, MDA-MB-453, and MIA PaCa-2 cell lines. The test can be described thus: Cell viability after 5 days of treatment. The format is cell-based. The note with it: variety of different cell types. The source says:
FIG. 12 and Table 8 include cell viability data after treatment with heterobifunctional compound D-128, D129, or D-130. […] The compounds may be effective in multiple cell types.

Another test has as its target CBP (Homo sapiens (Human), UniProt Q92793). Description: Immunoblot of CBP protein in LNCaP cells after compound treatment. The format is cell-based. The settings on record: for time at which significant degradation of CBP was detected: 500 nM, time course; for CBP protein levels: indicated concentrations, 8 hours, immunoblot. As for the experimental part:
(§5) Experiments were performed to see if heterobifunctional compounds as described herein could degrade target proteins. Specific exemplary heterobifunctional compounds were characterized in LNCaP and Calu-1 cells. LNCaP cells that express P300/CBP proteins were treated with heterobifunctional compounds disclosed herein (D-2, D-13, or D-7) at indicated concentrations for 8 hours. Cells were collected, lysed and subject to immunoblotting using an antibody specific to P300 or CBP proteins. Vinculin was included as the loading control. DMSO treatment was used as the negative control. […] In addition, LNCaP cells were treated with 500 nM of D-2, or D-13 for indicated period of time. Subsequently, changes in P300 and CBP protein levels were measured by immunoblotting.
(In general: A western blot detects proteins with antibodies after separation by electrophoresis.)

Test [2] concerns the target T1, P300 (Homo sapiens (Human), UniProt Q09472). Description: Immunoblot of P300 protein in LNCaP cells after compound treatment. Type of test: cell-based. The settings on record: for time at which significant degradation of P300 was detected: 500 nM, time course; for P300 protein levels: indicated concentrations, 8 hours, immunoblot. As for the experimental part: as §5

The next test has as its target Human DDB1 (Homo sapiens (Human), UniProt Q16531). The test can be described thus: Surface plasmon resonance (SPR) binding assay to immobilized His-DDB1. The note with it: SPR, DDB1 binding moieties with linkers and/or target protein binding moiety; read-out: Binding (Kd). An outline of the steps:
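Baculovirus-expressed His-DDB1 (High5 cells) amine-coupled to 11,000–13,000 RU on a CM5 chip; compounds injected in multi-cycle format without regeneration at 25° C in HBS-EP pH 7.4 (120 s association/dissociation). Double-referenced, solvent-corrected data fit to steady-state affinity model for KD.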
On the technique in general: SPR reads the build-up and loss of mass on a sensor chip optically.

Test [3] has as its target T1, P300. The test can be described thus: Immunoblot of P300 in Calu-1 cells with co-administered proteasome, neddylation or DDB1-ligand competitor. Type of test: cell-based. The source says: The heterobifunctional compound-mediated p300 and CBP degradation was dependent on the ubiquitin-proteasome system and cullin E3 ligase. […] The binding with DDB1 also played a role in the heterobifunctional compounds ability to induce degradation of P300 and CBP proteins.

Another test relates to LNCaP cells. Description: LNCaP cell viability (CellTiter-Glo). Type of test: cell-based. The note with it: three days. The method, then:
LNCaP cells seeded in 96-well plates were treated with 10 μM GNE-781 or selected heterobifunctional compounds, following a 12-point 3-fold serial dilution. Three days after treatment, cell viability was determined using the CellTiter-Glo Kit (Promega). Cell viability was normalized to the mean values of 3 replicates of untreated cells. Dose-dependent response was analyzed following the least-squares non-linear regression method using the GraphPad Prism software.

T1 sequence (Q09472 whole entry): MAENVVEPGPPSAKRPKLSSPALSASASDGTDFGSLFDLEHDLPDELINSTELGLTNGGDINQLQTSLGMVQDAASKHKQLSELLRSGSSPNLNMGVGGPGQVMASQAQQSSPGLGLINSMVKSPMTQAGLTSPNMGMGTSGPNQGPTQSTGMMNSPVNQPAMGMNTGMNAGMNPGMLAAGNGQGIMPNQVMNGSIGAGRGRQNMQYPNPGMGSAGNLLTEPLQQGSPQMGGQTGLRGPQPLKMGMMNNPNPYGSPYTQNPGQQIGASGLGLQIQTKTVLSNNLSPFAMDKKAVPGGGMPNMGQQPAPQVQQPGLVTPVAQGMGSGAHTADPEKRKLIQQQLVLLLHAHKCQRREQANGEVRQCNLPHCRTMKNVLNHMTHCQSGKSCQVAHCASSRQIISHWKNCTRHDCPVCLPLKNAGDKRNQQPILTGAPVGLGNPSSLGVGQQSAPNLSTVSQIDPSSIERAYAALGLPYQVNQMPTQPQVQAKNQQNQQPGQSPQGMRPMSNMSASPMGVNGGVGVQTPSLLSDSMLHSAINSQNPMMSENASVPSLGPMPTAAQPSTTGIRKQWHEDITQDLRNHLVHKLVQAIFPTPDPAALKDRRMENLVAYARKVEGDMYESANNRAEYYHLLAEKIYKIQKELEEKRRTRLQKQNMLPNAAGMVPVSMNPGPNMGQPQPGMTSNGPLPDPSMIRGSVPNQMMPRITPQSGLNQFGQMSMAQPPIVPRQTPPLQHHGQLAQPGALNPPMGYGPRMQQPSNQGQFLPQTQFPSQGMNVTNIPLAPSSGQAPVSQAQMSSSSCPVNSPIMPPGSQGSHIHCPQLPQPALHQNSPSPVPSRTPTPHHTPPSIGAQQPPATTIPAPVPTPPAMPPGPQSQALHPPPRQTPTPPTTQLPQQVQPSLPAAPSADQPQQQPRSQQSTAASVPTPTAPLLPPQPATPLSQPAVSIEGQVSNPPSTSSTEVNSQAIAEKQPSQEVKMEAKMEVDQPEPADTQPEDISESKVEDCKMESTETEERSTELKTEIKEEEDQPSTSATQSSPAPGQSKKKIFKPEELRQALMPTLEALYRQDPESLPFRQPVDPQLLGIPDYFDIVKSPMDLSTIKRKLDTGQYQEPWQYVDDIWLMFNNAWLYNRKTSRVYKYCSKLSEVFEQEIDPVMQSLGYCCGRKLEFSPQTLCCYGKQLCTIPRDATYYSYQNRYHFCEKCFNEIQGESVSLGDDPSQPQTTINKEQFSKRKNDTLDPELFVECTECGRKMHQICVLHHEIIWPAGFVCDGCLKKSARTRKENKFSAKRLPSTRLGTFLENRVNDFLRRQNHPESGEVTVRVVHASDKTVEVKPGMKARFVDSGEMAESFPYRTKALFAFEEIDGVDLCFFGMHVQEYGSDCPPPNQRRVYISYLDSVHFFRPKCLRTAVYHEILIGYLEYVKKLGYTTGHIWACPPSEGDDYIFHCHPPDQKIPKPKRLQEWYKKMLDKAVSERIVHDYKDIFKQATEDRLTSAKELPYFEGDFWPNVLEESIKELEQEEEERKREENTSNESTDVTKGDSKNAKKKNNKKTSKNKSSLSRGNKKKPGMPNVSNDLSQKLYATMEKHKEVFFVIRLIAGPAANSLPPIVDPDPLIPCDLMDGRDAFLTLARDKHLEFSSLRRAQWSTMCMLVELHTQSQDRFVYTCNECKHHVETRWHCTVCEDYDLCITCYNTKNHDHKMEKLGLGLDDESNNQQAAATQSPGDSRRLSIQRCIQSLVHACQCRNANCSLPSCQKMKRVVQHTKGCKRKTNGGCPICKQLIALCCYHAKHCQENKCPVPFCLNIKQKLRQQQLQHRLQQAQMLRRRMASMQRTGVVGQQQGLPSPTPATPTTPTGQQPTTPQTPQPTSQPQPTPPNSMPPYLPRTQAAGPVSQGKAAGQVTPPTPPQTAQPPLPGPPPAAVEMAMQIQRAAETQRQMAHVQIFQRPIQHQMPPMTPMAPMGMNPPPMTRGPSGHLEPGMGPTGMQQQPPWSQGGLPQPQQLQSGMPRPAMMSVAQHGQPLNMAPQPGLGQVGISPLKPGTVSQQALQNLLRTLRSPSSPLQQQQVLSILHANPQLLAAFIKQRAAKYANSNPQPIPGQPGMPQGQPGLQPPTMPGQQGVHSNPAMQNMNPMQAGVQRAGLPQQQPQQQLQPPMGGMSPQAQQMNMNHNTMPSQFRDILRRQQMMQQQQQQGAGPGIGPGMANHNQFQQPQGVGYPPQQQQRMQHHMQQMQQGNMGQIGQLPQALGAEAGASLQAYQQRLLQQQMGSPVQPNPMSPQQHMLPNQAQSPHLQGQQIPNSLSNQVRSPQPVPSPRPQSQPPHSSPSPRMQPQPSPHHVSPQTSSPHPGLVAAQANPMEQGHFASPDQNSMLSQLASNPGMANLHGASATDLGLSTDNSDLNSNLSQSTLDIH
Sequence of CBP (Q92793 whole entry): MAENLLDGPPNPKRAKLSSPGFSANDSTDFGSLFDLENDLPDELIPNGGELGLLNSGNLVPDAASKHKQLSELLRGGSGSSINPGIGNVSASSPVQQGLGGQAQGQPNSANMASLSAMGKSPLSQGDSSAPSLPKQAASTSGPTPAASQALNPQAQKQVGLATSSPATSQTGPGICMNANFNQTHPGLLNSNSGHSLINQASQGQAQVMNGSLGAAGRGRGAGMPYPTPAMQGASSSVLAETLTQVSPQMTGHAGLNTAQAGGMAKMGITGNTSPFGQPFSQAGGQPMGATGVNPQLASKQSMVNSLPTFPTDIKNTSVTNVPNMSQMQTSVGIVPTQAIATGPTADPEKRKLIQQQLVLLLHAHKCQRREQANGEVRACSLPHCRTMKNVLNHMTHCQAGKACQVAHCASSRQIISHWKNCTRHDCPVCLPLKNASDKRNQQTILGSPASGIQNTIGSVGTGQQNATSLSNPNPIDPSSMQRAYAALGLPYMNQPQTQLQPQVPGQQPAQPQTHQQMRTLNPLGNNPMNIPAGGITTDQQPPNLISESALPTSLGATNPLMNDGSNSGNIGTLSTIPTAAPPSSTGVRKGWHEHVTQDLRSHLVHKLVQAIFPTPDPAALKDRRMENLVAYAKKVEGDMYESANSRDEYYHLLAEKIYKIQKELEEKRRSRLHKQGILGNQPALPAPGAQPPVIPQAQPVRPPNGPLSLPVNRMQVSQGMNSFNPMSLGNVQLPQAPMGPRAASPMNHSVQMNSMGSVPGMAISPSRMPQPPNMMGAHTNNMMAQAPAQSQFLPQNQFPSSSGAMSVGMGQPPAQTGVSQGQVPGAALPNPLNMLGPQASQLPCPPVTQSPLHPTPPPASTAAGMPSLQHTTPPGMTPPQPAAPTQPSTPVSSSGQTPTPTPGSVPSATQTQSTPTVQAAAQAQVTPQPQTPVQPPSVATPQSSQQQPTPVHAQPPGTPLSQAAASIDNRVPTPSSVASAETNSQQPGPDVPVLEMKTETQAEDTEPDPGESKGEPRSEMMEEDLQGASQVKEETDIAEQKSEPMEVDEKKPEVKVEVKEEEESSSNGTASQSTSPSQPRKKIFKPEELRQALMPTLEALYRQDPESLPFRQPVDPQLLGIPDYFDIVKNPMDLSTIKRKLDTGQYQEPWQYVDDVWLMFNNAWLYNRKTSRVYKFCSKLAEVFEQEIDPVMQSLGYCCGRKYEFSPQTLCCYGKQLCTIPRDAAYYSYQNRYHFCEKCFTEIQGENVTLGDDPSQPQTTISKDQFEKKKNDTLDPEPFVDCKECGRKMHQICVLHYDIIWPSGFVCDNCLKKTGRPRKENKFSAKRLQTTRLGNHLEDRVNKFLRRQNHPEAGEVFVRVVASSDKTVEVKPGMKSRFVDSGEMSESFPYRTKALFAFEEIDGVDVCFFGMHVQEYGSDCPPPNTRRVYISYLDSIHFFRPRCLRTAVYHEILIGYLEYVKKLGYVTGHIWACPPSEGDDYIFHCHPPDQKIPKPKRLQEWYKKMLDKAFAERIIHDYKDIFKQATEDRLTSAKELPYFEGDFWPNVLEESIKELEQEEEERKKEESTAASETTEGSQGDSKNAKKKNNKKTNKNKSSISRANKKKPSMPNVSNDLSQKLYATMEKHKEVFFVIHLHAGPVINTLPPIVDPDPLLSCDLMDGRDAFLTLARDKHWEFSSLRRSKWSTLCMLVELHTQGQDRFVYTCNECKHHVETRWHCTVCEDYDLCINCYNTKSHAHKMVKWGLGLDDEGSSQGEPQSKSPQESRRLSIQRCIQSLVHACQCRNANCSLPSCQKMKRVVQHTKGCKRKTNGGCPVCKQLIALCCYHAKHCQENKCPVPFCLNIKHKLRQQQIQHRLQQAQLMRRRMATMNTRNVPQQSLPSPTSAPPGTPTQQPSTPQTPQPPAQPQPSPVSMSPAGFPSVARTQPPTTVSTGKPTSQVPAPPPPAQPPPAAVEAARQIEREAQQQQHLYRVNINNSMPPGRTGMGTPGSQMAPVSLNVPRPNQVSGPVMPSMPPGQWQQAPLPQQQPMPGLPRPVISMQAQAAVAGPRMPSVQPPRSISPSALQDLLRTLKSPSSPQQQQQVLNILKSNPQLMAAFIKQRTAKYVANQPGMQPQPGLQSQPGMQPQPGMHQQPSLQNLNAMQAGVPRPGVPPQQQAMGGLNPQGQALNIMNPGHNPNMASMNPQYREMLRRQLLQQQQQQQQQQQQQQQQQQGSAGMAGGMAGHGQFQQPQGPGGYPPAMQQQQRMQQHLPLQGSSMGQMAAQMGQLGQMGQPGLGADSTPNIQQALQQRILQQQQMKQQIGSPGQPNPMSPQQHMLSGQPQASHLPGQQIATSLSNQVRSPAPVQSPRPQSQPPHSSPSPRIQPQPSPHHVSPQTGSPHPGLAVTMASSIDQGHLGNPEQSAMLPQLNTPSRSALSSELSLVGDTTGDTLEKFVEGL

For `CC(=O)c1c(C)c2cnc(Nc3ccc(N4CCN(CC(=O)NCCOCCOCCOCCOCCNc5ccc(C(=O)Nc6ncc([N+](=O)[O-])s6)c(C)c5)CC4)cn3)nc2n(C2CCCC2)c1=O` [D-128, 4-((1-(4-(6-((6-Acetyl-8-cyclopentyl-5-methyl-7-oxo-7,8-dihydropyrido[2,3-d]pyrimidin-2-yl)amino)pyridin-3-yl)piperazin-1-yl)-2-oxo-6,9,12,15-tetraoxa-3-azaheptadecan-17-yl)amino)-2-methyl-N-(5-nitrothiazol-2-yl)benzamide], the IC50 is under 2 µM in the test on HCT116; under 2 µM with Hs 578T; under 2 µM with NCI-H358; under 2 µM with BT-549; 2 to 10 µM with MDAMB-468; under 2 µM in the test with SK-MEL-28. In addition, the IC50 with SK-N-SH, in the test on HCC1937, in the test on A375, with HCC827, with MDAMB-453 and in the test on MIA PaCa-2 was under 2 µM each time. In addition, the IC50 in the test with Calu-1 is under 2 µM. Further, the “reduction of cell viability compared to palbociclib” value (shortened to “reduction of cell viability”) in [1] was “more effective at lower doses than palbociclib”.
Take `CC(=O)Nc1cc(NCCCCNC(=O)CN2CCC(n3nc(N4CCCc5cc(-c6cnn(C)c6)c(C(F)F)cc54)c4c3CCN(C(C)=O)C4)CC2)ccc1C(=O)Nc1ccc([N+](=O)[O-])s1` [D-13, 2-Acetamido-4-((4-(2-(4-(5-acetyl-3-(7-(difluoromethyl)-6-(1-methyl-1H-pyrazol-4-yl)-3,4-dihydroquinolin-1 (2H)-yl)-4,5,6,7-tetrahydro-1H-pyrazolo[4,3-c]pyridin-1-yl)piperidin-1-yl)acetamido)butyl)amino)-N-(5-nitrothiophen-2-yl)benzamide]: on CBP, the “time at which significant degradation of CBP was detected” value was in the range of 2 to 4 h and the CBP protein levels entry is “significantly decreased in a concentration-dependent manner”. Further, at P300 [2], the “time at which significant degradation of P300 was detected” value lay in the range of 2 to 4 h and the P300 protein levels result is reported as “significantly decreased in a concentration-dependent manner”. On Human DDB1, the Kd is 20 to 100 µM. Further, at P300 [3], the “compound-induced degradation under co-administration of MG-132 or bortezomib (BTZ), or MLN4924” value was “compromised” and the “compound-mediated degradation under co-administration with excess DDB1 ligand BL-11” value is “partially neutralized”.
With `CC(=O)c1c(C)c2cnc(Nc3ccc(N4CCN(CC(=O)NCCOCCOCCOCCOCCOCCNc5ccc(C(=O)Nc6ncc([N+](=O)[O-])s6)c(C)c5)CC4)cn3)nc2n(C2CCCC2)c1=O` [D-129, 4-((1-(4-(6-((6-Acetyl-8-cyclopentyl-5-methyl-7-oxo-7,8-dihydropyrido[2,3-d]pyrimidin-2-yl)amino)pyridin-3-yl)piperazin-1-yl)-2-oxo-6,9,12,15,18-pentaoxa-3-azaicosan-20-yl)amino)-2-methyl-N-(5-nitrothiazol-2-yl)benzamide], the IC50 in the test with HCT116 is under 2 µM; with Hs 578T, under 2 µM; with NCI-H358, under 2 µM; in the test on BT-549, under 2 µM; in the test with MDAMB-468, 2 to 10 µM; with SK-MEL-28, under 2 µM. Besides, the IC50 with SK-N-SH, in the test on HCC1937, with A375, in the test on HCC827, in the test on MDAMB-453 and in the test with MIA PaCa-2 was under 2 µM in each case. The molecule also showed an IC50 in the test on Calu-1 of under 2 µM. Moreover, the “reduction of cell viability” value in test [1] was “more effective at lower doses than palbociclib”.
Take `CC(=O)c1c(C)c2cnc(Nc3ccc(N4CCN(CC(=O)NCCOCCOCCOCCOCCOCCOCCNc5ccc(C(=O)Nc6ncc([N+](=O)[O-])s6)c(C)c5)CC4)cn3)nc2n(C2CCCC2)c1=O` [D-130, 4-((1-(4-(6-((6-Acetyl-8-cyclopentyl-5-methyl-7-oxo-7,8-dihydropyrido[2,3-d]pyrimidin-2-yl)amino)pyridin-3-yl)piperazin-1-yl)-2-oxo-6,9,12,15,18,21-hexaoxa-3-azatricosan-23-yl)amino)-2-methyl-N-(5-nitrothiazol-2-yl)benzamide]: the half-inhibitory concentration (IC50) in the test on HCT116 was under 2 µM; in the test on Hs 578T it was under 2 µM; in the test on NCI-H358, under 2 µM; in the test with BT-549 it was under 2 µM; in the test on MDAMB-468 it was 2 to 10 µM; with SK-MEL-28, under 2 µM. In addition, the 50% inhibitory concentration (IC50) in the test with SK-N-SH is under 2 µM; with HCC1937 it was under 2 µM; in the test with A375 it was 2 to 10 µM; with HCC827, under 2 µM; in the test with MDAMB-453, under 2 µM; with MIA PaCa-2, under 2 µM. The IC50 with Calu-1 was under 2 µM. Moreover, the “reduction of cell viability” value in test [1] was “more effective at lower doses than palbociclib”.
For `CC(=O)Nc1cc(NCCCCNC(=O)CN2CCC(n3nc(N4CCCc5cc(-c6cnn(C)c6)c(C(F)F)cc54)c4c3CCN(C(C)=O)C4)CC2)ccc1C(=O)Nc1nc(C)c([N+](=O)[O-])s1` [D-2, 2-Acetamido-4-((4-(2-(4-(5-acetyl-3-(7-(difluoromethyl)-6-(1-methyl-1H-pyrazol-4-yl)-3,4-dihydroquinolin-1 (2H)-yl)-4,5,6,7-tetrahydro-1H-pyrazolo[4,3-c]pyridin-1-yl)piperidin-1-yl)acetamido)butyl)amino)-N-(4-methyl-5-nitrothiazol-2-yl)benzamide], at CBP, the “time at which significant degradation of CBP was detected” value was in the range of 2 to 4 h and the CBP protein levels result is “significantly decreased in a concentration-dependent manner”. Further, the “viability of LNCaP cells” value in the test with LNCaP cells (10 μM top, 12-point 3-fold serial dilution) is on record as “dose-dependently suppressed viability of LNCaP cells”. For the same molecule, in the test on LNCaP cells, the “inhibitory effects on the growth of LNCaP cells compared to GNE-781” value is on record as “more potent inhibitory effects”. In addition, on P300 [2], the “time at which significant degradation of P300 was detected” value was 2 to 4 h and the P300 protein levels entry was “significantly decreased in a concentration-dependent manner”. Moreover, the Kd on Human DDB1 lay within 20 to 100 µM. Moreover, the “compound-induced degradation under co-administration of MG-132 or bortezomib (BTZ), or MLN4924” value at P300 [3] is “compromised”.
